Test: Solubility of the product in water (stirred with water, aqueous phase analysed by HPLC)
Type: physicochemical
Conditions: for content of the product in the aqueous phase (solubility in water): HPLC; for water-solubility, overall rating in words: summary statement
Experimental: The solubility of the product in water was determined as follows:
The product was stirred with water for three days at room temperature and the composition of the aqueous phase obtained in this way was determined using HPLC. The aqueous phase contained 6.7 wt % of the product.
A further sample of the product was stirred with water for three hours at 80° C. and cooled back to room temperature. The composition of the aqueous phase obtained in this way was subsequently determined using HPLC. The aqueous phase contained more than 10 wt % of the product.
The product was stirred with water for two days at room temperature and the composition of the aqueous phase obtained in this way was determined using HPLC. The aqueous phase contained 6.2 wt % of the product.
A further sample of the product was stirred with water for one hour at 60° C. and cooled back to room temperature. The composition of the aqueous phase obtained in this way was subsequently determined using HPLC. The aqueous phase contained 8.1 wt % of the product.
The product was stirred with water for three days at room temperature and the composition of the aqueous phase obtained in this way was determined using HPLC.
A further sample of the product was stirred with water for three hours at 80° C. and cooled to room temperature. The composition of the aqueous phase obtained in this way was subsequently determined using HPLC.

[1] = stirred with water for three days at room temperature
[2] = stirred with water for three hours at 80° C. and cooled back to room temperature

C=C(C)C(=O)NCCCCCCNC(=O)CC#N [Comparative Example 3, N-(2-cyanoethylamidohexyl)methacrylamide, reference compound]
content of the product in the aqueous phase (solubility in water) [1]: virtually insoluble in water | content of the product in the aqueous phase (solubility in water) [2]: virtually insoluble in water | water-solubility, overall rating in words: very low water-solubility

C=C(C)C(=O)NCCNC(=O)CC#N [Example 3, N-(2-cyanoethylamidoethyl)methacrylamide]
content of the product in the aqueous phase (solubility in water) [1]: 6.7 wt % | content of the product in the aqueous phase (solubility in water) [2]: more than 10 wt % | water-solubility, overall rating in words: high water-solubility

C=C(C)C(=O)NCCCCNC(=O)CC#N [Example 5, N-(2-cyanoethylamidobutyl)methacrylamide]
content of the product in the aqueous phase (solubility in water) (stirred with water for one hour at 60° C. and cooled back to room temperature): 8.1 wt % | content of the product in the aqueous phase (solubility in water) (stirred with water for two days at room temperature): 6.2 wt % | water-solubility, overall rating in words: high water-solubility
